Assay results as given in patent publication US20040266696A1, “Angiogenesis drugs” (priority 2001, published 2004).
Square brackets hold non-standard residues; d marks the D form. Ends that are not written are not given here.

How the values were obtained:
mouse = test: Angiogenesis action in vivo examined by DAS assay (microcell embedded in the back of mouse); conditions: for angiogenic activity / angiogenesis action (summary in words): DAS assay in mice; for Angiogenesis Magnitude (number of newly formed spiral blood vessels): peptide 10 μg/ml in DMEM injected into microcell in back of mouse, observed five days later; for formation of capillary / spiral blood vessels in tissue contacting the microcell (observation): peptide 10 μg/ml in DMEM; for formation of capillary / spiral blood vessels in tissue contacting the microcell (observation) / angiogenesis magnitude: microcell in back of mouse, five days; for angiogenesis magnitude: peptide-bound gelatin collagen I mixture solution 10 μg/ml
Method: A solution containing the peptide at a concentration of 10 μg/ml in DMEM (Dulbecco's modified Eagle medium) used as a cell culture medium was prepared.
The magnitude indicates the number of newly formed spiral blood vessels, and M0 means that the number is 0, M1 means 1 to 10, M2 means 11 to 20, M3 means 21 to 30, M4 means 31 to 40, M5 means 41 to 50 and M6 means 51 or more. Thus, the larger the magnitude M, the higher the angiogenic activity.
The AGP conjugate (prepared in Example 10) having a concentration of 100 μg/ml was dissolved in collagen I at a ratio of 1:10 to obtain a peptide-bound gelatin collagen mixture solution having a concentration of 10 μg/ml.

[1] = test system: transformed rat lung endothelial cells (TRLECs); test: Angiogenic action in three-dimensionally cultured vascular endothelial tissue (tube formation); assay type: cell-based
Method: Rat vascular endothelial cells were three-dimensionally cultured in the presence of AGP synthesized in Example 1. As the cells, transformed rat lung endothelial cells (TRLECs) were used. TRLECs were placed in a collagen I layer mixed with the peptide solution, which contained 10 μg/ml of AGP, and cultured in a carbon dioxide gas incubator for 14 days. Control experiments were carried out in the absence of a factor. And positive control experiments were performed in the presence of VEGF, which is known as a potent angiogenesis factor.
No tubes were detected in the control at all. […] It was observed that a plurality of microvilli were found on the inner surfaces of the tubes. […] Tight junction formation was observed where the endothelial cells were firmly bound. These observations indicate that the endothelial cells acquired polarity and formed tubes. The polarity means that a cell develops regions having different functions such as head and tail. No polarity is given to the endothelial cells when the endothelial cells are cultured in a usual way, and so no tubes are formed.
Rat vascular endothelial cells were three-dimensionally cultured in the presence of AGP-bound gelatin synthesized in Example 10. As the cells, transformed rat lung endothelial cells (TRLECs) were used. Peptide AGP-bound gelatin (conjugate) and collagen type I were mixed at a ratio of 1:10, and TRLECs were placed in a layer containing the conjugate-collagen mixture solution, having a final concentration of 10 μg (microgram/ml) and cultured in a carbon dioxide gas incubator for 14 days. Control experiments were carried out in the absence of a factor, and in the presence of VEGF known as an angiogenesis factor.
No tube formations were detected in the control at all. […] It was observed that a plurality of microvilli were formed on the inner surfaces of the tubes. […] Tight junction formation was observed where the endothelial cells were firmly bound. These observations indicate that the endothelial cells acquired polarity and formed tubes.

[2] = TRLECs in collagen I layer, 10 μg/ml of AGP, cultured 14 days, microscope

## AGP4: AGP heptapeptide wherein the fourth amino acid tyrosine was substituted by alanine (SVVAGLR; Oligopeptide not having angiogenic activity)
mouse
  angiogenic activity / angiogenesis action (summary in words): angiogenesis action was lost
  Angiogenesis Magnitude (number of newly formed spiral blood vessels): M0 (M0 means that the number is 0)
  formation of capillary / spiral blood vessels in tissue contacting the microcell (observation): not observed at all

## AGP: heptapeptide (angiogenic peptide) having the amino acid sequence shown in SEQ ID NO: 1 (SVVYGLR; Oligopeptide having angiogenic activity)
mouse
  angiogenic activity / angiogenesis action (summary in words): strong (prominent) angiogenesis action
  Angiogenesis Magnitude (number of newly formed spiral blood vessels): M5 (M5 means 41 to 50)
  formation of capillary / spiral blood vessels in tissue contacting the microcell (observation): a number of branched capillary blood vessels were formed
  angiogenesis magnitude: M5 (M5 means 41 to 50)
[1]; [2]
  tube-like structure formation by endothelial cells: arranged in the tube-like structure
[1]; TRLECs in collagen I layer, 10 μg/ml, 14 days
  lengths of the tubes formed, compared with VEGF: significantly longer

## GLR (Oligopeptide not having angiogenic activity) [compound 7]
mouse
  Angiogenesis Magnitude (number of newly formed spiral blood vessels): M0 (M0 means that the number is 0)

## GRGDSVVYGLR (Oligopeptide having angiogenic activity) [Example 16]
mouse
  angiogenic activity / angiogenesis action (summary in words): high angiogenic activities

## SVV (Oligopeptide not having angiogenic activity) [compound 4]
mouse
  Angiogenesis Magnitude (number of newly formed spiral blood vessels): M0 (M0 means that the number is 0)

## SVV yGLR (SVV[dY]GLR) [Example 18]
mouse
  Angiogenesis Magnitude (number of newly formed spiral blood vessels): M2 (M2 means 11 to 20)

## SVVFGLR (Oligopeptide having angiogenic activity) [Example 12]
mouse; listed as SEQ ID NO: 9
  angiogenic activity / angiogenesis action (summary in words): especially high angiogenic activity
mouse; listed as SEQ ID NO:9
  angiogenic activity / angiogenesis action (summary in words): higher angiogenic activity than the peptide having the amino acid sequence shown in SEQ ID NO: 1
mouse
  Angiogenesis Magnitude (number of newly formed spiral blood vessels): M6 (M6 means 51 or more)

## SVVWGLR (Oligopeptide having angiogenic activity) [Example 19]
mouse
  Angiogenesis Magnitude (number of newly formed spiral blood vessels): M3 (M3 means 21 to 30)

## SVVY (Oligopeptide having angiogenic activity) [Example 21]
mouse
  Angiogenesis Magnitude (number of newly formed spiral blood vessels): M1 (M1 means 1 to 10)

## SVVYG (Oligopeptide having angiogenic activity) [Example 20]
mouse
  Angiogenesis Magnitude (number of newly formed spiral blood vessels): M2 (M2 means 11 to 20)

## SVVYGL (Oligopeptide having angiogenic activity) [Example 13]
mouse
  Angiogenesis Magnitude (number of newly formed spiral blood vessels): M5 (M5 means 41 to 50)

## SVVYGLRG (Oligopeptide having angiogenic activity) [Example 15]
mouse
  angiogenic activity / angiogenesis action (summary in words): high angiogenic activities

## VEGF
mouse
  Angiogenesis Magnitude (number of newly formed spiral blood vessels): M3 (M3 means 21 to 30)
  angiogenesis magnitude: M3 (M3 means 21 to 30)
[1]; [2]
  tube-like structure formation by endothelial cells: arranged in the tube-like structure
[1]; TRLECs in conjugate-collagen type I mixture (1:10), final concentration 10 μg/ml, 14 days
  tube-like structure formation by endothelial cells: arranged in the tube-like structure

## VVYGLR (Oligopeptide having angiogenic activity) [Example 14]
mouse
  Angiogenesis Magnitude (number of newly formed spiral blood vessels): M5 (M5 means 41 to 50)

## VYGLR (Oligopeptide not having angiogenic activity) [compound 5]
mouse
  Angiogenesis Magnitude (number of newly formed spiral blood vessels): M0 (M0 means that the number is 0)

## YGLR (Oligopeptide not having angiogenic activity) [compound 6]
mouse
  Angiogenesis Magnitude (number of newly formed spiral blood vessels): M0 (M0 means that the number is 0)
